Experimental findings from US7273723B2, “Antibiotic-based gene regulation system” (priority 2001, dated 2007) are described below.

Assay [1] has as its system ET1/PETR3. The assay can be described thus: CFP expression in CHO cells infected with ET1-encoding lentivirus (pMF391) and transfected with pWW44. Type of assay: cell-based. Conditions: 2 μg/ml erythromycin.
Assay [2] concerns ET1/PETR3. Put plainly: Dose-response of EM-dependent SEAP expression in stable CHO-ET11-SEAP. Type of assay: cell-based, Chinese hamster ovary cells. Conditions: 48 h. On the procedure: The cell line CHO-ET1-SEAP1 was grown for 48 h at different EM concentrations (ng/ml). The relative SEAP production is shown over 5 orders of magnitude of EM concentration.
Chinese hamster ovary cells (CHO-K1, ATCC: CCL 61), and HeLa cells (ATCC: CRL-7923) as well as stable cell lines derived thereof were cultured as described before (Fussenegger et al., 1998, Nat. Biotechnol. 16,468-472) in the presence of appropriate antibiotics: G418 400 μg/ml; zeocin 100 μg/ml. Optimized CaPO4 protocols were used for high efficiency transient transfection of all cell lines (Fussenegger et al., 1998. Nat. Biotechnol. 16: 468-472). Transiently transfected cells were routinely analyzed after 48 h for CFP or SEAP expression using fluorescence microscopy and p-nitrophenolphosphate-based light absorbance timecourse, respectively, as described before (Fussenegger et al., 1998, Nat. Biotechnol. 16, 468-472; Berger et al., 1988, Gene 66, 1-10 b). For construction of stable CHO-ET1 and CHO-Triplet42 cell lines, CHO-Ki and CHO-TWIN1108 (Disclosed in PCT application no. 00/65080) were cotransfected with pWW35 and pZeoSV2 (invitrogen). CHO-ET11-SEAP was constructed by cotransfection of pWW38 and pSV2neo (Clontech) into CHO-ET11. The mixed populations were cloned using FACS-mediated single-cell-sorting (FACStar^Plus; Beckton Dickinson). For assessment of dose-response characteristics of PETR3-regulated gene expression, CHO-ET11-SEAP were cultured at cell densities of 50,000/ml for 48 h at various EM concentrations.
Varying the concentrations of EM used for induction could control the levels of PETR3-regulated gene expression. This was assessed using a stable CHO cell line (CHO-ET11-SEAP) which expresses PETR3-SEAP (pWW38) and stably contains also a constitutive ET1 expression vector (pWW35). […] Increasing EM concentration above 10 ng/ml leads to a gradual decrease in SEAP expression, with lowest SEAP expression levels at EM concentrations over 1000 ng/ml. […]

Assay [3] concerns MphR(A) or MphR(A)-NLS / plant promoters PETRpON4, PETRpON8. Put plainly: EpON erythromycin-inducible GUS expression in Nicotiana tabacum SR1 suspension cells. Type of assay: cell-based. Conditions: 250 μg/ml erythromycin. On the procedure: The transformation protocol of SR1 cells was adapted from Wu and Feng (1999, Plant Cell Reports 18: 381-386). In brief, 200 mg of exponentially growing SR1 cells were harvested by centrifugation. The cells were incubated for 15 min. in 2% DMSO and washed twice in fresh medium. Cells were subsequently resuspended in electroporation buffer (5 mM CaCl2; 10 mM NaCl2; 0.4 M sucrose; 8.7% glycerol; 4 mM ascorbate; 10 mM HEPES; pH 6.8) and mixed with desired DNA at a concentration of 0.2 μg/μl. The cell-DNA mixture was incubated for 10 min. on ice electroporated at 700 V/cm and 980 μF using a BioRad Gene Pulser and appropriate cuvettes. Following electroporation, cells were kept on ice for 10 min. and deplasmolyzed by 4 subsequent additions of 100 μl LS medium at 5 min. intervals. Transformation rates 20%±5% are typically reached with SR1 cells using this modified protocol.
Transformed SR1 cells were incubated at 25° C. for 48 h while rocking at 110 rpm. […] Cells were lysed in extraction buffer (50 mM NaH2PO4; 10 mM EDTA; 0.1% Triton X-100; 0.1% sodium lauryl sarcosine; 10 mM β-mercaptoethanol; pH 7.0) by freezing them in liquid nitrogen and grinding them using a micropestle. Soluble protein extract was collected by centrifugation for 20 min. at 15,000 rpm and 4° C. Protein concentration of plant extracts was determined using a Bradford assay (Bradford, 1976, Anal. Biochem. 72: 248-254). The GUS expression assay was performed following a modified protocol by Jefferson et al. (1987; EMBO J. 6: 3901-3907). In brief, 100 μl of cell extract were incubated in extraction buffer (see above) also containing 1 mM of the β-glucuronidase substrate 4-methylumbelliferyl glucuronide (MUG; Duchefa, NL). The reaction mixture was incubated at 37° C. and 100 μl aliquots were removed at appropriate time intervals and the reaction stopped by addition of 1.9 ml of 0.2 M K2CO3. The fluorescence time course was determined using typical 365 nm/455 nm excitation/emission profiles and a Shimadzu RF-5001 PC spectrofluorophotometer.
For regulated expression in transgenic plants and plant tissue culture an inducible rather than a repressible gene regulation system would be desirable. This enables induction of transgene […] by addition of the antibiotic rather than by its withdrawal. We therefore constructed an erythromycin-inducible plant gene regulation system (EpON) which consisted of the E. coli MphR(A) repressor protein (SEQ ID NO: 4) which binds, in the absence of macrolide antibiotics, to the ETR binding module cloned downstream of a strong constitutive plant promoter (PCaMV35S). Binding of MphR(A) to the ETR module blocks PCaMV35S-mediated target gene expression. […]

For `CC[C@H]1OC(=O)[C@H](C)[C@@H](O[C@H]2C[C@@](C)(OC)[C@@H](O)[C@H](C)O2)[C@H](C)[C@@H](O[C@@H]2O[C@H](C)C[C@H](N(C)C)[C@H]2O)[C@](C)(O)C[C@@H](C)C(=O)[C@H](C)[C@@H](O)[C@]1(C)O` [Erythromycin], the “CFP expression (fluorescence)” value in the assay with ET1/PETR3 [1] was “complete repression”. The “EM concentration at which ET1/PETR3 is fully induced” value in the assay on ET1/PETR3 [2] is below 10 ng/mL. Further, the “EM concentration at which ET1/PETR3 is repressed (lowest SEAP expression)” value in the assay on ET1/PETR3 [2] was above 1000 ng/mL. Also, the “EM concentration window in which gene expression can be adjusted to different levels” value in the assay with ET1/PETR3 [2] lay in the range of 10 to 1000 ng/mL. The “GUS activity upon addition of erythromycin” value is on record as 313.5±39.6 pmoles 4-MU min^−1 mg^−1 protein^−1 in assay [3] (pBP8/pBP15 (MphR(A)-NLS / PETRpON4)), 283.6±24.7 pmoles 4-MU min^−1 mg^−1 protein^−1 in assay [3] (pBP8/pBP35 (MphR(A)-NLS / PETRpON8)), 305.2±24.9 pmoles 4-MU min^−1 mg^−1 protein^−1 in assay [3] (pBP9/pBP15 (MphR(A) / PETRpON4)) and 276.7±34.1 pmoles 4-MU min^−1 mg^−1 protein^−1 in assay [3] (pBP9/pBP35 (MphR(A) / PETRpON8)).
